Measured values taken from publication PMC3636379, “Intracellular accumulation of aggregated pyroglutamate amyloid beta: convergence of aging and Aβ pathology at the lysosome” (Age, 2012).

How the values were obtained:
[1] = system: differentiated SK-N-SH cells; assay: Lysosomal membrane permeabilization: CTD in subcellular fractions, Western blot; type: cell-based; settings: 1 μM oligomers, 16 h, three experiments
Protocol: (§1) To investigate whether Aβ3(pE)-42 oligomers affect the integrity of the lysosomes, lysosomal membrane permeabilization (LMP) was analyzed in differentiated SK-N-SH cells. A distinctive sign of LMP is the translocation of soluble lysosomal components, from the lysosomal lumen to the cytosol (Boya et al. [2003]). Differentiated SK-N-SH cells were treated with Aβ oligomers and the leakage of cathepsin D (CTD), a soluble lysosomal enzyme, from the lysosomal lumen to the cytosol was analyzed after subcellular fractionation on Western blot and by immunofluorescent staining. Treatment with Aβ3(pE)-42 oligomers led to a decrease of CTD in the membrane fraction (which also contained the lysosomes) whereas the cytosolic CTD was increased. […] The result was confirmed by immunofluorescent staining of CTD. Untreated cells reveal a particulate staining pattern, indicative of its localization within lysosomes (Fig. 1b).
SK-N-SH and HeLa cells were cultured in Dulbecco’s modified Eagle’s medium with GlutaMAX (Gibco BRL, Carlsbad, CA, USA) supplemented with 10 % fetal calf serum (FCS, Gibco BRL), 100 μg/ml streptomycin, and 100 U/ml penicillin. Cell lines are routinely checked for mycoplasma contamination using a specific 16S rRNA PCR-based assay; all cells used in this study were mycoplasma free. […]

[2] = system: differentiated SK-N-SH cells; assay: Lysosomal membrane permeabilization: immunofluorescent staining of CTD; type: cell-based; settings: 1 μM Aβ oligomers or hydroxychloroquine, 16 h; confocal microscopy
Protocol: as §1, with “1b). […] SK-N-SH and HeLa cells were cultured in Dulbecco’s modified Eagle’s medium with GlutaMAX (Gibco BRL, Carlsbad, CA, USA) supplemented with 10 % fetal calf serum (FCS, Gibco BRL), 100 μg/ml streptomycin, and 100 U/ml penicillin. Cell lines are routinely checked for mycoplasma contamination using a specific 16S rRNA PCR-based assay; all cells used in this study were mycoplasma free. […]” for “1b).”

recombinant CTD = target: T1, recombinant CTD (Homo sapiens, UniProt P07339); assay: Degradation assay of internally quenched fluorescent Aβ peptides with cathepsin D; type: in vitro ADME; settings: 10 pmol, 5 mU recombinant CTD, 100 mM sodium acetate pH 5.0, 37 °C, fluorescence ex 485 / em 520 nm, mean ± SD, two independent experiments (n = 10)
T1 construct: purchased Sigma
Protocol: Therefore, we investigated whether the pE-modified Aβ is more resistant to lysosomal degradation. To this end, a degradation assay with the major lysosomal hydrolase CTD was performed. For this purpose, we used internally quenched fluorescent Aβ peptides. Degradation of the peptides removes the quencher and restores the fluorescent signal (Reits et al. [2003]), thus allowing analysis of degradation over time by monitoring the increase in fluorescence. […] To investigate the effect of aggregation on degradation, we used pre-aggregated Aβ1-40 and Aβ3(pE)-40 in the CTD assay. […] Upon aggregation, the overall degradation is hampered, but the observed difference between the peptides is retained.
Aβ peptides containing fluorophore and quencher were synthesized by solid phase synthesis using an Fmoc strategy at the NKI peptide facility. […] Peptides were purified by RP-HPLC and evidenced the expected molecular mass as determined by mass spectrometry.
Immediately prior to use, HFIP-treated peptide films of fluorescently labeled internally quenched Aβ were resuspended in DMSO and further diluted in PBS. […] Degradation of quenched peptides was followed by monitoring the increase in fluorescence (excitation, 485–12 nm; emission, 520 nm, Fluostar Omega) at 37 °C. Background fluorescence of peptide incubated in buffer without CTD controls was subtracted. […]

T1 sequence (P07339 65-412): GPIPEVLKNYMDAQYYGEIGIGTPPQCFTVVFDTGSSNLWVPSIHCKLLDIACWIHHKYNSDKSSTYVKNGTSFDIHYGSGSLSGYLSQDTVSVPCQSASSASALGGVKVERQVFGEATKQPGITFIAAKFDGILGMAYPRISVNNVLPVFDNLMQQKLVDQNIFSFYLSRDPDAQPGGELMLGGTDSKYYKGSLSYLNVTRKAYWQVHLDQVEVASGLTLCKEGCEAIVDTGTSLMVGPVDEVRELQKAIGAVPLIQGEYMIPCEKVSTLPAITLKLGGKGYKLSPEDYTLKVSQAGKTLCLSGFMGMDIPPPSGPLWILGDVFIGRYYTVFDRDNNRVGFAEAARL

Substance | CTD in the membrane fraction (containing the lysosomes) [1] | cytosolic CTD [1] | CTD staining pattern (release from lysosomes to cytoplasm) [2] | time to reach the half-max fluorescence of degradation (t 1/2) (recombinant CTD; not pre-aggregated, internally quenched fluorescent peptide (Oregon green 488 at aa 22, dabcyl at aa 12)) [min] | time to reach the half-max fluorescence of degradation (t 1/2) (recombinant CTD; pre-aggregated peptide, internally quenched fluorescent peptide) [min]
Aβ1-42: synthetic amyloid beta 1-42 purchased from Anaspec, used as oligomers | did not change | did not change | same pattern but to a lesser extent |  | 
Aβ1-40: internally quenched fluorescent Aβ peptide, Oregon green 488 at amino acid 22 and dabcyl at amino acid 12; pre-aggregated or not |  |  |  | 48.9 ± 4.3 | 63.6 ± 10.0
